Laboratory results as given in patent publication US7989464B2, “mGluR1 antagonists as therapeutic agents” (Schering Corporation, priority 2004, dated 2011).

molecular target: T1, hmGluR1 receptor (Homo sapiens, UniProt Q13255); experiment: IC50 determination: intracellular calcium mobilization (FLIPR) upon Quisqualate stimulation in CHO cells stably expressing hmGluR1; assay type: cell-based; details: against Quisqualate 1 μM (EC80), FLIPR calcium mobilization, read-out: mGluR1 IC50
T1 construct: expressed in transfected cells
T1 sequence (Q13255 19-1194): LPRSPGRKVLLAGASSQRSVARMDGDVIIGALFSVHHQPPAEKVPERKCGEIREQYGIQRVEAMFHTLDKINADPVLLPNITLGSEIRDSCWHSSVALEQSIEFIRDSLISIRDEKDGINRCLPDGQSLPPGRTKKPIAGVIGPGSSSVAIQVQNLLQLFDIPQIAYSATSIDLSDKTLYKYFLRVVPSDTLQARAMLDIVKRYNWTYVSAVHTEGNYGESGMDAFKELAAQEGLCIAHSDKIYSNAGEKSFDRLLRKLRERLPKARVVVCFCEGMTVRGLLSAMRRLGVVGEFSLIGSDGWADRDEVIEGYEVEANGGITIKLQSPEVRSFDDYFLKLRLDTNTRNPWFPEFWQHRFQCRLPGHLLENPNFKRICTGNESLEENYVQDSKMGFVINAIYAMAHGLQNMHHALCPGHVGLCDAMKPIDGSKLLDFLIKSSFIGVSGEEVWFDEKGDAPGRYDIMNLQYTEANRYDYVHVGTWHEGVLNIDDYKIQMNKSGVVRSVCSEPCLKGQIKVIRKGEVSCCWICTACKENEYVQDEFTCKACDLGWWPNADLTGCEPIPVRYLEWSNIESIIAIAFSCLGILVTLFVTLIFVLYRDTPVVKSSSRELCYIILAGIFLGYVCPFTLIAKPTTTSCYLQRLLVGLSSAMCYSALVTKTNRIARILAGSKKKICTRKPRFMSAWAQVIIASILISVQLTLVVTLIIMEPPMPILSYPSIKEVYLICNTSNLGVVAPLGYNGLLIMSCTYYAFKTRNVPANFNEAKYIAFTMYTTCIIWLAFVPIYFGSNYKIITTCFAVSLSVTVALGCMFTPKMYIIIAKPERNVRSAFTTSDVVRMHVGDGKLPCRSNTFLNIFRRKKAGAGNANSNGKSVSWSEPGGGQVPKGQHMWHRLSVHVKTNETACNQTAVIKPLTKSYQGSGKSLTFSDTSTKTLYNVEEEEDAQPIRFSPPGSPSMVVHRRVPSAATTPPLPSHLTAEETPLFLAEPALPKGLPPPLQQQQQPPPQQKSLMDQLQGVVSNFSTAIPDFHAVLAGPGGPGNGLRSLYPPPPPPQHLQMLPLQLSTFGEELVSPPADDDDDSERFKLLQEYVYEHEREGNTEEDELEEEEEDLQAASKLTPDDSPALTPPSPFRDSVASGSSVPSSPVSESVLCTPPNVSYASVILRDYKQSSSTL
Description: A CHO cell line stably expressing hmGluR1 receptor was established. One day prior to assay, cells were split in growth media at concentration of 50,000 cells/well in a volume of 100 μl and seeded into black clear-bottom 96-well plates. After two to six hours, when cells were well attached to the plate, growth medium was replaced with assay medium (100 μL) consisting of DMEM high glucose, supplemented with GPT (1 U/mL) and Sodium pyruvate, 1 mM. Following overnight incubation, medium was discarded and cells were loaded for 2 h with dye from the Calcium 3 Assay Reagent Kit (Molecular Devices, # R8033), prepared according to manufacturers' instructions. […] Test compounds were added 10 minutes before Quisqualate.

IC50 [µM] | SMILES
0.00184 | CN(C)c1ccnc2sc3c(=O)n(-c4ccc5c(c4)OCCO5)cnc3c12 [7AC]
0.00148 | CN(C)c1ccnc2sc3c(=O)n(-c4ccc5sccc5c4)cnc3c12 [7BM]
0.00202 | Cc1ccc(-n2cnc3c(sc4nccc(N(C)C)c43)c2=O)cc1F [7DH]

same assay, conditions: against Quisqualate 1 μM (EC80), class symbols, read-out: mGIuR 1 IC50

SMILES | IC50 [µM]
C=CCn1cnc2c(sc3nccc(N(C)C)c32)c1=O [7AB] | 0.15 to 1
CN(C)c1ccnc2sc3c(=O)n(-c4ccc5c(c4)OCCO5)cnc3c12 [7AC] | < 0.05
CCCOc1ccc(-n2cnc3c(sc4nccc(N(C)C)c43)c2=O)cc1 [7AG] | > 1
CC(c1ccccc1)n1cnc2c(sc3nccc(N(C)C)c32)c1=O (stereo not shown) [7AH] | 0.05 to 0.15
CN(C)c1ccnc2sc3c(=O)n(C4CCCc5ccccc54)cnc3c12 (stereo not shown) [7AI] | 0.15 to 1
CN(C)c1ccc(-n2cnc3c(sc4nccc(N(C)C)c43)c2=O)cc1 [7AJ] | < 0.05
CN(C)c1ccnc2sc3c(=O)n(-c4ccc(O)cc4)cnc3c12 [7AK] | < 0.05
CC(=O)Nc1ccc(-n2cnc3c(sc4nccc(N(C)C)c43)c2=O)cc1 [7AL] | > 1
CN(C)c1ccnc2sc3c(=O)n(-c4ccc5[nH]ccc5c4)cnc3c12 [7AM] | < 0.05
CN(C)c1ccnc2sc3c(=O)n(-c4ccc5[nH]ncc5c4)cnc3c12 [7AN] | 0.15 to 1
CN(C)c1ccnc2sc3c(=O)n(-c4ccc5[nH]nnc5c4)cnc3c12 [7AO] | 0.15 to 1
CC(C)Oc1ccc(-n2cnc3c(sc4nccc(N(C)C)c43)c2=O)cc1 [7AQ] | > 1
CN(C)c1ccnc2sc3c(=O)n(-c4ccc5c(c4)oc(=O)n5C)cnc3c12 [7AR] | > 1
CN(C)c1ccnc2sc3c(=O)n(-c4ccc5ncsc5c4)cnc3c12 [7AS] | < 0.05
CN(C)c1ccnc2sc3c(=O)n(-c4ccc5nc[nH]c5c4)cnc3c12 [7AW] | 0.05 to 0.15
CN(C)c1ccnc2sc3c(=O)n(-c4ccc(CO)cc4)cnc3c12 [7AY] | < 0.05
CN(C)c1ccnc2sc3c(=O)n(-c4ccc(C(N)=O)cc4)cnc3c12 [7AZ] | > 1
CN(C)c1ccnc2sc3c(=O)n(-c4ccc5c(c4)OCO5)cnc3c12 [7A] | < 0.05
CC(C)c1ccc(-n2cnc3c(sc4nccc(N(C)C)c43)c2=O)cc1 [7BA] | 0.15 to 1
CN(C)c1ccnc2sc3c(=O)n(-c4ccc(C(C)(C)C)cc4)cnc3c12 [7BB] | > 1
CN(C)c1ccnc2sc3c(=O)n(-c4ccc(CC#N)cc4)cnc3c12 [7BC] | > 1

SMILES | IC50 [µM]
CN(C)c1ccnc2sc3c(=O)n(-c4ccc5[nH]c(C(F)(F)F)nc5c4)cnc3c12 [7BD] | > 1
CN(C)c1ccnc2sc3c(=O)n(-c4ccc5c(c4)CC(=O)N5)cnc3c12 [7BE] | > 1
C#CCn1cnc2c(sc3nccc(N(C)C)c32)c1=O [7BH] | > 1
CN(C)c1ccnc2sc3c(=O)n(-c4ccc5c(c4)CCC5)cnc3c12 [7BI] | < 0.05
CCc1ccc(-n2cnc3c(sc4nccc(N(C)C)c43)c2=O)cc1 [7BJ] | < 0.05
CCCc1ccc(-n2cnc3c(sc4nccc(N(C)C)c43)c2=O)cc1 [7BK] | 0.15 to 1
CN(C)c1ccnc2sc3c(=O)n(-c4ccc5c(c4)CC=C5)cnc3c12 [7BL] | < 0.05
CN(C)c1ccnc2sc3c(=O)n(-c4ccc5sccc5c4)cnc3c12 [7BM] | < 0.05
CN(C)c1ccnc2sc3c(=O)n(-c4ccc5nsnc5c4)cnc3c12 [7BN] | < 0.05
CN(C)c1ccnc2sc3c(=O)n(-c4ccc5c(c4)NC(=O)CO5)cnc3c12 [7BO] | < 0.05
CN(C)c1ccnc2sc3c(=O)n(-c4nc5ccccc5s4)cnc3c12 [7BQ] | 0.15 to 1
CN(C)c1ccnc2sc3c(=O)n(-c4cccc5nonc45)cnc3c12 [7BR] | 0.15 to 1
CN(C)c1ccnc2sc3c(=O)n(-c4ccc5ncoc5c4)cnc3c12 [7BS] | < 0.05
CN(C)c1ccnc2sc3c(=O)n(-c4ccc5occc5c4)cnc3c12 [7BY] | < 0.05
CNc1ccnc2sc3c(=O)n(-c4ccc5ncsc5c4)cnc3c12 [7BZ] | < 0.05
CNc1ccnc2sc3c(=O)n(-c4ccc(OC)c(F)c4)cnc3c12 [7CA] | < 0.05
CNc1ccnc2sc3c(=O)n(-c4ccc5c(c4)OCO5)cnc3c12 [7CB] | < 0.05
CCc1ccc(-n2cnc3c(sc4nccc(NC)c43)c2=O)cc1 [7CC] | < 0.05
CNc1ccnc2sc3c(=O)n(-c4ccc(O)cc4)cnc3c12 [7CD] | < 0.05
CCN(C)c1ccnc2sc3c(=O)n(-c4ccc(OC)cc4)cnc3c12 [7CE] | < 0.05
CNc1ccc(-n2cnc3c(sc4nccc(N(C)C)c43)c2=O)cc1 [7CF] | < 0.05

SMILES | IC50 [µM]
CN(C)c1ccnc2sc3c(=O)n(-c4ccc5c(c4)CCO5)cnc3c12 [7CG] | < 0.05
CN(C)c1ccnc2sc3c(=O)n(-c4ccc5c(c4)OCCCO5)cnc3c12 [7CH] | 0.15 to 1
CC(=O)Nc1cccc(-n2cnc3c(sc4nccc(N(C)C)c43)c2=O)c1 [7CI] | 0.15 to 1
COc1ccc(-n2cnc3c(sc4nc(C)cc(N(C)C)c43)c2=O)cc1 [7CJ] | 0.05 to 0.15
Cc1ccc(-n2cnc3c(sc4nc(C)cc(N(C)C)c43)c2=O)cc1 [7CK] | < 0.05
COc1ccc(-n2cnc3c(sc4nc(C)cc(N(C)C)c43)c2=O)cc1F [7CL] | 0.05 to 0.15
Cc1cc(N(C)C)c2c(n1)sc1c(=O)n(-c3ccc(Cl)cc3)cnc12 [7CM] | < 0.05
Cc1cc(N(C)C)c2c(n1)sc1c(=O)n(-c3ccc4c(c3)CCO4)cnc12 [7CN] | 0.05 to 0.15
Cc1cc(N(C)C)c2c(n1)sc1c(=O)n(-c3ccc4ncsc4c3)cnc12 [7CO] | 0.05 to 0.15
CCc1ccc(-n2cnc3c(sc4nc(C)cc(N(C)C)c43)c2=O)cc1 [7CP] | 0.05 to 0.15
CSc1ccc(-n2cnc3c(sc4nccc(N(C)C)c43)c2=O)cc1 [7CQ] | < 0.05
CN(C)c1ccnc2sc3c(=O)n(-c4ccc5[nH]c(=O)[nH]c5c4)cnc3c12 [7CS] | 0.15 to 1
Cc1cc(N(C)C)c2c(n1)sc1c(=O)n(-c3ccc(Br)cc3)cnc12 [7CY] | < 0.05
Cc1cc(N(C)C)c2c(n1)sc1c(=O)n(C3CCCCC3)cnc12 [7CZ] | < 0.05
CN(C)c1ccnc2sc3c(=O)n(Cc4ccccc4)cnc3c12 [7C] | 0.05 to 0.15
CSc1ccc(-n2cnc3c(sc4nc(C)cc(N(C)C)c43)c2=O)cc1 [7DA] | 0.15 to 1
Cc1cc(N(C)C)c2c(n1)sc1c(=O)n(-c3ccccc3)cnc12 [7DB] | < 0.05
Cc1cc(N(C)C)c2c(n1)sc1c(=O)n(-c3ccc(F)cc3)cnc12 [7DC] | < 0.05
Cc1cc(N(C)C)c2c(n1)sc1c(=O)n(-c3cccnc3)cnc12 [7DD] | 0.15 to 1
Cc1cc(N(C)C)c2c(n1)sc1c(=O)n(-c3ccc(C(F)(F)F)cc3)cnc12 [7DM] | 0.15 to 1
Cc1cc(N(C)C)c2c(n1)sc1c(=O)n(-c3cccc(Br)c3)cnc12 [7DN] | 0.05 to 0.15

Next, values leading:

IC50 [µM] | SMILES
< 0.05 | COc1cccc(-n2cnc3c(sc4nccc(N(C)C)c43)c2=O)c1 [7AA]
> 1 | COc1ccc(-n2cnc3c(sc4nccc(N(C)C)c43)c2=O)cc1OC [7AD]
0.15 to 1 | CCOc1ccc(-n2cnc3c(sc4nccc(N(C)C)c43)c2=O)cc1 [7AE]
> 1 | COc1cc(-n2cnc3c(sc4nccc(N(C)C)c43)c2=O)cc(OC)c1OC [7AF]
< 0.05 | COc1ccc(-n2cnc3c(sc4nccc(N(C)C)c43)c2=O)cc1F [7AP]
> 1 | Cc1nc2cc(-n3cnc4c(sc5nccc(N(C)C)c54)c3=O)ccc2s1 [7AT]
> 1 | COC(=O)c1sccc1-n1cnc2c(sc3nccc(N(C)C)c32)c1=O [7AU]
< 0.05 | CN(C)c1ccnc2sc3c(=O)n(-c4cccc(O)c4)cnc3c12 [7AV]
< 0.05 | COc1cc(OC)cc(-n2cnc3c(sc4nccc(N(C)C)c43)c2=O)c1 [7AX]
< 0.05 | Cc1ccc(-n2cnc3c(sc4nccc(N(C)C)c43)c2=O)cc1 [7BF]
< 0.05 | COc1ccc(-n2cnc3c(sc4nccc(N(C)C)c43)c2=O)cc1 [7BG]
> 1 | COc1ccc2nc(-n3cnc4c(sc5nccc(N(C)C)c54)c3=O)sc2c1 [7BP]
> 1 | Cc1nc2ccc(-n3cnc4c(sc5nccc(N(C)C)c54)c3=O)cc2o1 [7BT]
> 1 | Cc1nc2cc(-n3cnc4c(sc5nccc(N(C)C)c54)c3=O)ccc2o1 [7BU]
> 1 | Cc1nc2ccc(-n3cnc4c(sc5nccc(N(C)C)c54)c3=O)cc2[nH]1 [7BV]
< 0.05 | COc1ccc(-n2cnc3c(sc4nccc(N(C)C)c43)c2=O)cn1 [7BW]

IC50 [µM] | SMILES
> 1 | COc1cc(Br)c(-n2cnc3c(sc4nccc(N(C)C)c43)c2=O)c(Br)c1 [7BX]
< 0.05 | CN(C)c1ccnc2sc3c(=O)n(-c4ccc5scnc5c4)cnc3c12 [7CR]
< 0.05 | CN(C)c1ccnc2sc3c(=O)n(-c4ccc(O)c(F)c4)cnc3c12 [7CT]
< 0.05 | Cc1cccc(-n2cnc3c(sc4nccc(N(C)C)c43)c2=O)c1 [7CU]
< 0.05 | Cc1ccc(-n2cnc3c(sc4nccc(N(C)C)c43)c2=O)cc1C [7CV]
0.05 to 0.15 | Cc1ccccc1-n1cnc2c(sc3nccc(N(C)C)c32)c1=O [7CW]
0.05 to 0.15 | Cc1cccc(-n2cnc3c(sc4nccc(N(C)C)c43)c2=O)n1 [7CX]
< 0.05 | Cc1ccc(-n2cnc3c(sc4nccc(N(C)C)c43)c2=O)nc1 [7DE]
< 0.05 | Cc1ccc(-n2cnc3c(sc4nccc(N(C)C)c43)c2=O)cn1 [7DF]
< 0.05 | Cc1ccc(-n2cnc3c(sc4nccc(N(C)C)c43)c2=O)cc1Cl [7DG]
< 0.05 | Cc1ccc(-n2cnc3c(sc4nccc(N(C)C)c43)c2=O)cc1F [7DH]
< 0.05 | COc1ccc(-n2cnc3c(sc4nccc(N(C)C)c43)c2=O)c(C)c1 [7DI]
< 0.05 | COc1ccc(-n2cnc3c(sc4nccc(N(C)C)c43)c2=O)cc1C [7DJ]
< 0.05 | COc1ccc(-n2cnc3c(sc4nccc(N(C)C)c43)c2=O)c(F)c1 [7DK]
< 0.05 | CN(C)c1ccnc2sc3c(=O)n(-c4cccc(Br)c4)cnc3c12 [7DL]
